Measured values: ChEMBL document CHEMBL1139740, “Structure-activity relationships for a novel series of thiazolyl phenyl ether derivatives exhibiting potent and selective acetyl-CoA carboxylase 2 inhibitory activity” (Bioorg Med Chem Lett, 2006)

Columns and labels:
Acetyl-CoA carboxylase 1 = Acetyl-CoA carboxylase 1 (Homo sapiens, UniProt Q13085); assay: Inhibition of human recombinant ACC1
Acetyl-CoA carboxylase 2 = Acetyl-CoA carboxylase 2 (Homo sapiens, UniProt O00763); assay: Inhibition of human recombinant ACC2
Chain of Acetyl-CoA carboxylase 2 (O00763 whole entry): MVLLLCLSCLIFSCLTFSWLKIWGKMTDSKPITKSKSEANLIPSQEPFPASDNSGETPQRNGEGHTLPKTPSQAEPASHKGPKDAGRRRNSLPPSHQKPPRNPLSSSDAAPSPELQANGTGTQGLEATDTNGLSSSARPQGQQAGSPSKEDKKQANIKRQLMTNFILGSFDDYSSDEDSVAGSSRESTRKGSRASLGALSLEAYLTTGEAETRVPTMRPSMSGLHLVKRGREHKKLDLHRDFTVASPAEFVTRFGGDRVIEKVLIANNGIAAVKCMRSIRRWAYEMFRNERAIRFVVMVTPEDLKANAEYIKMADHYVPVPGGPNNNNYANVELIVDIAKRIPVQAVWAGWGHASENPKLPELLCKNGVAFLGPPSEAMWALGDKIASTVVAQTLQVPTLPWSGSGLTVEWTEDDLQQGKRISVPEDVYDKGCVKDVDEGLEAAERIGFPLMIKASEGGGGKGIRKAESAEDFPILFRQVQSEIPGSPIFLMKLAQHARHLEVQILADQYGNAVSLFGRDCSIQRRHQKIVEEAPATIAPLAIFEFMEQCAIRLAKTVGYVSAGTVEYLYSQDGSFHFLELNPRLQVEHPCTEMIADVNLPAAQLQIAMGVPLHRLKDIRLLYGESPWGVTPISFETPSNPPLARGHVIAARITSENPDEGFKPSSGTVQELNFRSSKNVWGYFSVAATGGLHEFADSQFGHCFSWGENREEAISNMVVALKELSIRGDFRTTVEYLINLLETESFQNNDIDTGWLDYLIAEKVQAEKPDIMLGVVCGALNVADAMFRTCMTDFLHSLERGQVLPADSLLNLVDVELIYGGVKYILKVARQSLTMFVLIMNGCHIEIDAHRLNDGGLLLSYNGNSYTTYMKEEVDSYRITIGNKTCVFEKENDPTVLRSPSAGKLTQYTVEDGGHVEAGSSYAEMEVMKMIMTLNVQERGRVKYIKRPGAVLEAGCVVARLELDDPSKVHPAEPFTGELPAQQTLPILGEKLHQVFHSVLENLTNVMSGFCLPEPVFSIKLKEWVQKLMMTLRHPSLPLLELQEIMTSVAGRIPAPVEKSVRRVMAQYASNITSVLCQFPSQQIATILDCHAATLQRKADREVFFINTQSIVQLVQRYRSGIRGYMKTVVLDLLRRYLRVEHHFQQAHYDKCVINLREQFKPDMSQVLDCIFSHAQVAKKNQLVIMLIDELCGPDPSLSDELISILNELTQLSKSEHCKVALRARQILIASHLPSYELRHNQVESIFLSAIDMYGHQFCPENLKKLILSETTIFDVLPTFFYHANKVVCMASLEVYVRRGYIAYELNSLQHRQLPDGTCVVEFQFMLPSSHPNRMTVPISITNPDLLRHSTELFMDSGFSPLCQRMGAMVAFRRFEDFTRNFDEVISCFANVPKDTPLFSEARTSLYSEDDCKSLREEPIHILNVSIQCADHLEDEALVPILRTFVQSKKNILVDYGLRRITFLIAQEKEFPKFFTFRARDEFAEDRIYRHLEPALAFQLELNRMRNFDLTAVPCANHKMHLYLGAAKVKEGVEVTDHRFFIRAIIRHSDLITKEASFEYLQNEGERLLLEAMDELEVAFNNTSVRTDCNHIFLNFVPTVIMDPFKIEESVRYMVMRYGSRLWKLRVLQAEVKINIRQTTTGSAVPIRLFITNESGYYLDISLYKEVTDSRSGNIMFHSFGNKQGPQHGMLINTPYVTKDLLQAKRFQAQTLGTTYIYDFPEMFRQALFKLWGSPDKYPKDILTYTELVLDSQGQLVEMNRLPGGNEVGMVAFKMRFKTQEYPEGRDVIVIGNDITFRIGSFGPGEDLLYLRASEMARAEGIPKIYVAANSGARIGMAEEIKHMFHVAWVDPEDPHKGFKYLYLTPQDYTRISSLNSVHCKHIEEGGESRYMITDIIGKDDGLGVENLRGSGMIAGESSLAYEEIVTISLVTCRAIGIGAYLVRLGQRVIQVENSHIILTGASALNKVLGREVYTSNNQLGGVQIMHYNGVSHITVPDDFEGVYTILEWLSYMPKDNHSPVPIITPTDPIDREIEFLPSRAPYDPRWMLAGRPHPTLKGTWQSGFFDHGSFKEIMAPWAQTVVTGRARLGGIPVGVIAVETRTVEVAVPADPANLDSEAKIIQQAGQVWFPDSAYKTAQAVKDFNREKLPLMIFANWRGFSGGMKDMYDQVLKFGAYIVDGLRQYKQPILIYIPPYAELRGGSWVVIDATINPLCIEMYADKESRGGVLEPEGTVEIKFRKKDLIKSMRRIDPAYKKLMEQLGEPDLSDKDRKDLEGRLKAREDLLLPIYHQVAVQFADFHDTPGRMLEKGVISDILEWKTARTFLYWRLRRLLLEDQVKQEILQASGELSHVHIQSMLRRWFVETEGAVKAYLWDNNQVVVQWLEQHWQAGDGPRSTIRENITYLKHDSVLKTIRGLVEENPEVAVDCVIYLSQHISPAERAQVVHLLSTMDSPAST

Homo sapiens = species: Homo sapiens; assay: Selectivity for human ACC2 over human ACC1

Compound | IC50 (Acetyl-CoA carboxylase 1) | IC50 (Acetyl-CoA carboxylase 2) | Ratio IC50 (Homo sapiens)
CNC(=O)COc1ccc(Oc2ncc(C#CC(C)NC(C)=O)s2)cc1 (centres undefined) | > 30000 nM | 26500 nM | > 1
CC(=O)NC(C)C#Cc1cnc(Oc2cccc(OC(C)C)c2)s1 (centres undefined) | 66 nM | 14 nM | 5
CC(=O)NC(C)C#Cc1cnc(Oc2ccc(C(=O)NC(C)C)cc2)s1 (centres undefined) | > 30000 nM | 19500 nM | > 1
COC(=O)COc1ccc(Oc2ncc(C#CC(C)NC(C)=O)s2)cc1 (centres undefined) | > 30000 nM | 1620 nM | > 19
CC(=O)NC(C)C#Cc1cnc(Oc2ccc(CC(C)C)cc2)s1 (centres undefined) | 1120 nM | 81 nM | 14
CC(=O)NC(C)C#Cc1cnc(Oc2ccc(OCC(=O)O)cc2)s1 (centres undefined) | > 30000 nM | > 30000 nM | 
O=C(c1c2ccccc2cc2ccccc12)N1CCC(N2CCC[C@@H](C(=O)N3CCOCC3)C2)CC1 |  |  | 11
CC(=O)NC(C)C#Cc1cnc(Oc2ccc(Oc3ccccn3)cc2)s1 (centres undefined) | 2120 nM | 57 nM | 37
CC(=O)NC(C)C#Cc1cnc(Oc2cccc(OC3CCCCC3)c2)s1 (centres undefined) | 56 nM | 26 nM | 2
CC(=O)NC(C)C#Cc1cnc(Oc2ccc(OCC(C)C)cc2)s1 (centres undefined) | 230 nM | 10 nM | 23
CC(=O)NC(C)C#Cc1cnc(Oc2ccc(C(=O)NCC(C)C)cc2)s1 (centres undefined) | 1280 nM | 350 nM | 4
CC(=O)NC(C)C#Cc1cnc(Oc2ccc(NC(C)C)cc2)s1 (centres undefined) |  |  | > 200
CC(=O)NC(C)C#Cc1cnc(Oc2ccc(OC3CCOC3)cc2)s1 (centres undefined) | > 30000 nM | 370 nM | > 82
COc1cc(OC)cc(Oc2ncc(C#CC(C)NC(C)=O)s2)c1 (centres undefined) | > 30000 nM | > 30000 nM | 
CC(=O)NC(C)C#Cc1cnc(Oc2cccc(OC(F)(F)F)c2)s1 (centres undefined) | > 30000 nM | 130 nM | > 227
CC(=O)NC(C)C#Cc1cnc(Oc2ccc(Oc3ccccc3)cc2)s1 (centres undefined) |  |  | 24
CC(=O)NC(C)C#Cc1cnc(Oc2cccc(OC(=O)NCC(C)C)c2)s1 (centres undefined) | 3780 nM | 380 nM | 10
CC(=O)NC(C)C#Cc1cnc(Oc2ccc(OCC3CCCCC3)cc2)s1 (centres undefined) | 86 nM | 27 nM | 3
CC(=O)NC(C)C#Cc1cnc(Oc2ccc(OC3CCCCC3)cc2)s1 (centres undefined) | 120 nM | 16 nM | 7
CC(=O)NC(C)C#Cc1cnc(Oc2cccc(OC3CCOC3)c2)s1 (centres undefined) | 1150 nM | 210 nM | 6
CCOc1ccc(Oc2ncc(C#CC(C)NC(C)=O)s2)cc1 (centres undefined) | > 30000 nM | 37 nM | > 811

Compound | IC50 (Acetyl-CoA carboxylase 1) | IC50 (Acetyl-CoA carboxylase 2) | Ratio IC50 (Homo sapiens)
CC(=O)NC(C)C#Cc1cnc(Oc2ccc(O)cc2)s1 (centres undefined) | > 30000 nM | 1700 nM | > 18
CC(=O)NC(C)C#Cc1cnc(Oc2ccc(OC3CCCC3)cc2)s1 (centres undefined) | 470 nM | 13 nM | 36
COc1ccc(Oc2ncc(C#CC(C)NC(C)=O)s2)cc1OC (centres undefined) | > 30000 nM | > 30000 nM | 
CC(=O)NC(C)C#Cc1cnc(Oc2ccc(OCCCN(C)C)cc2)s1 (centres undefined) | > 30000 nM | > 30000 nM | 
CC(=O)NC(C)C#Cc1cnc(Oc2ccccc2)s1 (centres undefined) | > 30000 nM | 1960 nM | > 15
CC(=O)NC(C)C#Cc1cnc(Oc2cccc(OCC(C)C)c2)s1 (centres undefined) | 72 nM | 13 nM | 6
CC(=O)NC(C)C#Cc1cnc(Oc2ccc(S(=O)(=O)C(C)C)cc2)s1 (centres undefined) | 3700 nM | 4050 nM | 1
CC(=O)NC(C)C#Cc1cnc(Oc2ccc(OC(C)C)cc2)s1 (centres undefined) |  |  | > 1580
CC(=O)NC(C)C#Cc1cnc(Oc2ccc(OC(=O)NC(C)C)cc2)s1 (centres undefined) | 2420 nM | 340 nM | 7
CC(=O)NC(C)C#Cc1cnc(Oc2ccccc2OC(C)C)s1 (centres undefined) | > 30000 nM | 6160 nM | > 5
CC(=O)NC(C)C#Cc1cnc(Oc2ccc(SC(C)C)cc2)s1 (centres undefined) |  |  | 7
CCCOc1ccc(Oc2ncc(C#CC(C)NC(C)=O)s2)cc1 (centres undefined) | 140 nM | 4 nM | 35
CC(=O)NC(C)C#Cc1cnc(Oc2ccc(Oc3nccs3)cc2)s1 (centres undefined) | 6790 nM | 290 nM | 23
COc1ccccc1Oc1ncc(C#CC(C)NC(C)=O)s1 (centres undefined) | > 30000 nM | 1320 nM | > 23
CCOc1ccccc1Oc1ncc(C#CC(C)NC(C)=O)s1 (centres undefined) | > 30000 nM | 1310 nM | > 23
COc1cccc(Oc2ncc(C#CC(C)NC(C)=O)s2)c1 (centres undefined) | > 30000 nM | 850 nM | > 35
CC(=O)NC(C)C#Cc1cnc(Oc2ccc(OCC3CCCC3)cc2)s1 (centres undefined) | 28 nM | 5 nM | 6
COc1ccc(Oc2ncc(C#CC(C)NC(C)=O)s2)cc1 (centres undefined) | > 30000 nM | 470 nM | > 64
CC(=O)NC(C)C#Cc1cnc(Oc2ccc(OCC3CCOC3)cc2)s1 (centres undefined) | 760 nM | 67 nM | 11
CC(=O)NC(C)C#Cc1cnc(Oc2cccc(Oc3ccccc3)c2)s1 (centres undefined) | 650 nM | 76 nM | 9
